According to the supplement of paper PMC10307832:

Legend:
Test in all cases: relative viability (nuclei count vs DMSO), 5 days (fraction); higher = more cells survive
Midostaurin + Tozasertib = compound: CO[C@@H]1[C@H](N(C)C(=O)c2ccccc2)C[C@H]2O[C@]1(C)n1c3ccccc3c3c4c(c5c6ccccc6n2c5c31)C(=O)NC4 [Midostaurin] + Cc1cc(Nc2cc(N3CCN(C)CC3)nc(Sc3ccc(NC(=O)C4CC4)cc3)n2)n[nH]1 [Tozasertib] (partner 0.1 µM)
Outline: (§1)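 Lung cancer cell lines in 1536-well plates got either a single drug or a fixed anchor-drug dose together with five library-drug doses (not always all listed) in √10 steps, by pin tool, on the day after seeding. Nuclei were counted after 5 days, and relative viability is the treated-to-vehicle ratio of nuclei counts. Values are medians of duplicate plates.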

[1] = compound: COc1cc(-c2nn([C@H]3CC[C@H](N4CCN(C(C)=O)CC4)CC3)c3ncnc(N)c23)ccc1NC(=O)c1cc2ccccc2n1C + CCNC(=O)c1noc(-c2cc(C(C)C)c(O)cc2O)c1-c1ccc(CN2CCOCC2)cc1 [Luminespib] (partner 0.01 µM)
Outline: as §1

Midostaurin + OSI-027 = compound: CO[C@@H]1[C@H](N(C)C(=O)c2ccccc2)C[C@H]2O[C@]1(C)n1c3ccccc3c3c4c(c5c6ccccc6n2c5c31)C(=O)NC4 [Midostaurin] + COc1cccc2cc(-c3nc([C@H]4CC[C@H](C(=O)O)CC4)n4ncnc(N)c34)[nH]c12 [OSI-027] (partner 0.5 µM)
Outline: as §1

Midostaurin + Phenformin = compound: CO[C@@H]1[C@H](N(C)C(=O)c2ccccc2)C[C@H]2O[C@]1(C)n1c3ccccc3c3c4c(c5c6ccccc6n2c5c31)C(=O)NC4 [Midostaurin] + N=C(N)NC(=N)NCCc1ccccc1 [Phenformin] (partner 250 µM)
Outline: as §1

Midostaurin + Linsitinib = compound: CO[C@@H]1[C@H](N(C)C(=O)c2ccccc2)C[C@H]2O[C@]1(C)n1c3ccccc3c3c4c(c5c6ccccc6n2c5c31)C(=O)NC4 [Midostaurin] + C[C@]1(O)C[C@@H](c2nc(-c3ccc4ccc(-c5ccccc5)nc4c3)c3c(N)nccn32)C1 [Linsitinib] (partner 1 µM)
Outline: as §1

Cell Line	relative viability (Midostaurin + Tozasertib; first compound 0.01 µM)	relative viability (Midostaurin + Tozasertib; first compound 0.03162 µM)	relative viability (Midostaurin + Tozasertib; first compound 0.1 µM)	relative viability (Midostaurin + Tozasertib; first compound 0.3162 µM)	relative viability ([1]; first compound 0.0128 µM)	relative viability ([1]; first compound 0.04048 µM)	relative viability ([1]; first compound 0.128 µM)	relative viability ([1]; first compound 1.28 µM)	relative viability (Midostaurin + OSI-027; first compound 0.01 µM)	relative viability (Midostaurin + OSI-027; first compound 0.03162 µM)	relative viability (Midostaurin + OSI-027; first compound 0.1 µM)	relative viability (Midostaurin + OSI-027; first compound 0.3162 µM)	relative viability (Midostaurin + Phenformin; first compound 0.01 µM)	relative viability (Midostaurin + Phenformin; first compound 0.03162 µM)	relative viability (Midostaurin + Phenformin; first compound 0.1 µM)	relative viability (Midostaurin + Phenformin; first compound 0.3162 µM)	relative viability (Midostaurin + Linsitinib; first compound 0.01 µM)	relative viability (Midostaurin + Linsitinib; first compound 0.03162 µM)	relative viability (Midostaurin + Linsitinib; first compound 0.1 µM)	relative viability (Midostaurin + Linsitinib; first compound 0.3162 µM)
NCI-H1993	0.595	0.606	0.545	0.599	0.768	0.825	0.589	0.767	0.519	0.546	0.54	0.576	0.476	0.498	0.477	0.508	0.782	0.712	0.655	0.669
RERF-LC-KJ	0.47	0.464	0.433	0.321	1.24	1.36	1.28	1.29	0.622	0.614	0.673	0.663	0.454	0.376	0.391	0.379	0.945	0.868	0.89	0.926
NCI-H23	0.344	0.575	0.348	0.259	0.198	–	0.201	0.191	0.562	0.592	0.524	0.513	0.713	0.798	0.773	0.772	0.53	0.698	0.362	0.508
EMC-BAC-2	0.267	0.296	0.243	0.273	1.21	1.18	1.23	1.06	0.346	0.31	0.336	0.218	0.508	0.508	0.458	0.283	0.84	0.777	0.669	0.765
NCI-H2405	0.752	0.677	0.742	0.585	0.862	0.529	0.56	0.251	0.65	0.6	0.525	0.633	0.415	0.441	0.377	0.491	0.965	1.01	–	0.853
NCI-H358	0.103	0.101	0.0978	0.112	0.452	0.251	0.395	0.296	0.894	0.73	0.788	0.776	0.404	0.331	0.371	0.353	0.818	0.607	0.813	0.599
NCI-H1944	0.268	0.269	0.261	0.232	0.667	0.647	0.783	0.477	0.385	0.399	0.416	0.411	0.217	0.196	0.239	0.235	1.17	1.25	1.31	1.28
EPLC-272H	0.261	–	0.186	0.311	0.331	–	0.257	0.209	0.301	–	0.289	0.305	0.31	–	0.282	0.303	1.08	1.11	1.17	1.22
